Assay results reported in ChEMBL document CHEMBL4376830, “Diterpenoids and Bisnorditerpenoids from Blumea aromatica” (2019).
Calls of active or inactive are those of the source. The calls are words filed in the database; no cut-off is given here.

Tests used:
[1] = species on record: Mus musculus; test: Anti-immunosuppressive activity in LPS-activated mouse MDSC assessed as reduction in PD-L1 expression at 20 to 40 uM incubated for 24 hrs by flow cytometry; assay type: functional
[2] = system: RAW264.7; test: Anti-inflammatory activity in LPS-stimulated mouse RAW264.7 cells assessed as reduction in TNF-alpha production at 40 uM by ELISA relative to control; assay type: functional

Row | Compound | inhibition [1] | inhibition at 40 µM [2] [%]
1 | C=CC(=C)[C@@H](O)C[C@H]1[C@](C)(O)[C@@H](O)[C@H](O)[C@H]2C(C)(C)CCC[C@@]21C | inactive | –
2 | CC(=O)/C=C/[C@H]1[C@](C)(O)[C@@H](O)[C@H](OC(=O)C=C(C)C)[C@H]2C(C)(C)CCC[C@@]21C | inactive | –
3 | O=C(/C=C/c1ccc(O)c(O)c1)O[C@@H]1[C@H](O)C[C@](O)(C(=O)O)C[C@H]1OC(=O)/C=C/c1ccc(O)c(O)c1 | inactive | 15.5
4 | CC1(C)C[C@H](O)C[C@@](C)(O)/C1=C\C(=O)O | inactive | 27.5
5 | O=C(/C=C/c1ccc(O)c(O)c1)O[C@@H]1C[C@](O)(C(=O)O)C[C@@H](OC(=O)/C=C/c2ccc(O)c(O)c2)[C@@H]1O | inactive | –
6 | C=C/C(C)=C/C[C@H]1[C@](C)(O)[C@@H](O)[C@H](OC(=O)CC(C)C)[C@H]2C(C)(C)CCC[C@@]21C | inactive | –
7 | O=c1c(O[C@@H]2O[C@H](CO)[C@@H](O)[C@H](O)[C@H]2O)c(-c2ccc(O)cc2)oc2cc(O)cc(O)c12 | inactive | –
8 | CC(=O)/C=C/[C@H]1[C@](C)(O)[C@@H](O)[C@H](OC(=O)CC(C)C)[C@H]2C(C)(C)CCC[C@@]21C | inactive | –
9 | COc1ccc(-c2oc3cc(O)c(OC)c(O)c3c(=O)c2OC)cc1 [SANTIN] | inactive | 24
10 | O=Cc1c[nH]c2ccccc12 | inactive | –
11 | COC(=O)[C@@]1(O)C[C@@H](O)[C@@H](OC(=O)/C=C/c2ccc(O)c(O)c2)[C@H](OC(=O)/C=C/c2ccc(O)c(O)c2)C1 | inactive | –
12 | CC[C@H](CC[C@@H](C)[C@H]1CC[C@H]2[C@@H]3CC=C4C[C@@H](O)CC[C@]4(C)[C@H]3CC[C@]12C)C(C)C | inactive | –
13 | O=C(/C=C/c1ccc(O)c(O)c1)O[C@@H]1C[C@](OC(=O)/C=C/c2ccc(O)c(O)c2)(C(=O)O)C[C@@H](O)[C@@H]1O | inactive | –
14 | CCC(C)/C(=C/C(=O)O)C(=O)OC (stereo unspecified) | inactive | –
15 | C=CC(=C)[C@H](O)C[C@H]1[C@](C)(O)[C@@H](O)[C@H](O)[C@H]2C(C)(C)CCC[C@@]21C | inactive | –
16 | CC(=O)/C=C/[C@H]1[C@](C)(O)[C@@H](O)[C@H](O)[C@H]2C(C)(C)CCC[C@@]21C | inactive | –
17 | C/C=C(/C)C(=O)O[C@H]1[C@H](O)[C@@](C)(O)[C@H](/C=C/C(C)=O)[C@@]2(C)CCCC(C)(C)[C@H]12 | inactive | –
18 | CCC(C)/C(=C/C(=O)O)C(=O)O (stereo unspecified) | inactive | –
19 | C=C/C(C)=C/C[C@H]1[C@](C)(O)[C@@H](O)[C@H](O)[C@H]2C(C)(C)CCC[C@@]21C | inactive | –
20 | O=C(/C=C/c1ccc(O)c(O)c1)O[C@@H]1C[C@@](O)(C(=O)O)C[C@@H](O)[C@H]1O | inactive | –
21 | O=C(O)/C=C/C(=O)O | inactive | –
22 | CCCCOC(=O)[C@@]1(O)C[C@@H](O)[C@@H](OC(=O)/C=C/c2ccc(O)c(O)c2)[C@H](OC(=O)/C=C/c2ccc(O)c(O)c2)C1 | inactive | –
23 | O=C(/C=C/c1ccc(O)c(O)c1)O[C@H]1[C@H](O)C[C@](O)(C(=O)O)C[C@H]1OC(=O)/C=C/c1ccc(O)c(O)c1 | inactive | –
